Assay results reported in PMC11356900, “Synthesis, Structural Properties and Biological Activities of Novel Hydrazones of 2-, 3-, 4-Iodobenzoic Acid” (Molecules, 2024).
Values after ≈ are worked out from the molar mass of the structure shown.

Experiments:
MTT cytotoxicity assay = type: cell-based, mouse; conditions: mouse, L929 fibroblast cells; L929, 48 h culture, dose of 25 μM; read-out: increased viability
Experimental: Among all the newly synthesized compounds, four compounds designated as: 14, 20, 21 and 27 were selected for further testing of their cytotoxic properties at the doses of 10, 25, 50, 75 and 100 µM. The cytotoxic properties of the above compounds were tested on the cancer cell lines, i.e., A549 (ECACC 86012804) (non-small-cell lung cancer), T47D (ECACC 85102201) (breast cancer), HeLa (ATCC® CCL-2™) (cervical cancer) and normal line L929 (NCTC clone 929, ATCC® CCL-1™) (mouse fibroblasts) using the MTT test for 24- and 48 h cultures.
A549 (ECACC 86012804) (non-small-cell lung cancer) and T47D (ECACC 85102201) (breast cancer) were obtained from ECACC and propagated in Dulbecco’s Minimal Essential Medium, supplemented with 2 mM of glutamine, antibiotics ([…] streptomycin, 1% of 100 U/L penicillin) and 10% Fetal Bovine Serum. HeLa (ATCC® CCL-2™) (cervical cancer) and L929 (NCTC clone 929, ATCC® CCL-1™) (mouse fibroblasts) cell lines were obtained from ATCC and propagated in the Eagle Minimal Essential Medium supplemented with antibiotics ([…] streptomycin, 1% of 100 U/L penicillin) and with 10% and 5% FBS, respectively. The cell line was routinely grown in 75 cm^2 tissue culture flasks and kept in an incubator (humidified atmosphere of 5% CO2 at 37 °C). All examined cell lines were tested against mycoplasma contamination with microbiological assays.
The cell viability of tested compounds (14, 20, 21 and 27) was assessed by the MTT assay. In brief, the exponentially growing cells were plated in 100 μL/well in 96-well plates. After 24 h culturing, the cells were treated with different concentrations of compounds (range 10–100 μM). After 24 and 48 h of incubation, 10 μL of 5 mg/mL MTT was added to each well and the plates were incubated at 37 °C for additional 4 h. The medium was subsequently removed, the purple-colored precipitates of formazan were dissolved in 100 μL of DMSO. The color absorbance was recorded at 570 nm using a BioTek model EPOCH ELISA plate reader. All experiments were performed in triplicate. The absorbance values were in the range of linearity of the Lambert–Beer law.

Candida spp. = assay: Broth microdilution, summary over reference yeasts; type: cell-based; conditions: for MFC / MIC / MFC/MIC: range over the reference Candida spp. strains; for antifungal activity in words: reference yeasts from Candida spp.
How it was run: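 Following EUCAST and CLSI guidance, growth inhibition is measured in broth across final compound levels of 1000 down to 0.488 µg/mL. Cidal endpoints come from spotting each well onto agar; three independent repeats.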

Gram-negative bacteria = assay: Broth microdilution, summary over reference Gram-negative bacteria; type: cell-based; conditions: for MIC: range over the reference Gram-negative bacteria; for antibacterial activity in words: reference Gram-negative bacteria
From the text: Procedures of in vitro antimicrobial assays are described in Supplementary Materials.
2. Microbiology – in vitro antimicrobial activity assays […]
using the broth microdilution method according to the European Committee on Antimicrobial Susceptibility Testing (EUCAST) and Clinical and Laboratory Standards Institute guidelines against a panel of reference and clinical or saprophytic strains of mi croorganisms, including the Gram-positive bacteria: Staphylococcus aureus ATCC 43300 (Methi-cillin Resistant S. aureus – MRSA), Staphylococcus aureus ATCC 29213 (Methicillin Susceptible S. aureus – MSSA), Staph-ylococcus epidermidis ATCC 12228, Micrococcus luteus ATCC 10240, Bacillus subtilis ATCC 6633 and Bacillus cereus ATCC 10876), Gram-negative bacteria: Bordetella bronchiseptica ATCC 4617, Escherichia coli ATCC 25922, Klebsiella pneumoniae ATCC 13883, Proteus mirabilis ATCC 12453, Salmonella typhimurium ATCC 14028 and Pseudomonas aeruginosa ATCC 9027, and fungi belonging to yeasts: Candida albicans ATCC 10231, Candida albicans ATCC 2091, Candida parapsilosis ATCC 22019, Candida glabrata ATCC 90030 and Candida krusei ATCC 14243. The microorganisms belonging to ATCC originated from American Type Culture Collection, routinely used for the evaluation of antimicrobials. All the used microbial cultures were first subcultured on nutrient agar or Sabouraud agar at 35°C for 18-24 h or 30°C for 24-48 h for bacteria […]
The surface of Mueller-Hinton agar (for bacteria) and RPMI 1640 with MOPS (for fungi) were inoculated with the suspensions of bacterial or fungal species. Microbial suspensions were prepared in sterile saline with an optical density of McFarland standard scale 0.5. The samples containing the compounds were dissolved in dimethyl sulfoxide (DMSO).
Furthermore, the bacterial and fungal suspensions put onto the Petri dishes with solid media containing 2 mg/mL of the tested compounds followed were incubated at 37°C for 24h and 30°C for 48h for bacteria and fungi, respectively. […]
Subsequently, MIC (Minimal Inhibitory Concentration) of the compounds was examined by the microdilution broth method, using their two-fold dilutions in Mueller-Hinton broth (for bacteria) and RPMI 1640 broth with MOPS (for fungi) prepared in the 96-well polystyrene plates. […] After incubation, the MIC was assessed spectrophotometrically as the lowest concentration of the […]
Appropriate DMSO, growth and sterile controls were carried out. […] The MBC/MFC was determined by removing the culture used for the MIC determination from each well and spotted onto the appro-priate agar medium. […] The lowest com-pounds concentration with no visible growth observed was assessed as a bactericidal/fungicidal concentration. […]

[1] = system: Pseudomonas aeruginosa ATCC 9027; assay: Broth microdilution MIC/MBC; conditions: ATCC9027

**Q.** Which viability at 48 h, 25 µM (MTT cytotoxicity assay) does the source give for `O=C(N/N=C/c1cc(I)cc(I)c1O)c1ccccc1I` [Compound 14, N-[(3,5-diiodo-2-hydroxyphenyl)methylidene]-2-iodobenzohydrazide] here?
**A.** > 100%

**Q.** What about the MFC (Candida spp.) of the same molecule?
**A.** ≥ 1000 µg/mL

**Q.** What about the MIC (Candida spp.) of the same molecule?
**A.** 250 to 1000 µg/mL (≈ 405 to 1620 µM)

**Q.** And the “antifungal activity in words” value (Candida spp.)?
**A.** moderate or mild

**Q.** What does the source list for `O=C(N/N=C/c1cc(Cl)cc(I)c1O)c1cccc(I)c1` [Compound 20, N-[(5-chloro-2-hydroxy-3-iodophenyl)methylidene]-3-iodobenzohydrazide]?
**A.** MIC (Gram-negative bacteria): 500 to 1000 µg/mL (≈ 950 to 1900 µM); antibacterial activity in words (Gram-negative bacteria): mild or moderate; MFC/MIC (Candida spp.): > 4; MIC (Candida spp.): 125 to 500 µg/mL (≈ 237 to 950 µM); antifungal activity in words (Candida spp.): good and moderate; MBC [1]: > 1000 µg/mL; MBC/MIC [1]: > 2; MIC [1]: 500 µg/mL (≈ 950 µM)

**Q.** Which results are given for `O=C(N/N=C/c1cc(Br)cc(Br)c1O)c1cccc(I)c1` [Compound 21, N-[(3,5-dibromo-2-hydroxyphenyl)methylidene]-3-iodobenzohydrazide]?
**A.** MFC/MIC (Candida spp.): > 4; MIC (Candida spp.): 125 to 500 µg/mL (≈ 239 to 954 µM); antifungal activity in words (Candida spp.): good and moderate; MIC [1]: > 1000 µg/mL

**Q.** For `O=C(N/N=C/c1cc(Cl)cc(I)c1O)c1ccc(I)cc1` [Compound 27, N-[(5-chloro-2-hydroxy-3-iodophenyl)methylidene]-4-iodobenzohydrazide], which MIC (Gram-negative bacteria) is on record?
**A.** 500 µg/mL (≈ 950 µM)

**Q.** And the “antibacterial activity in words” value (Gram-negative bacteria)?
**A.** moderate (moderate bioactivity with MIC from 126 to 500 µg/mL)

**Q.** What about the MFC (Candida spp.) of the same molecule?
**A.** 62.5 µg/mL (≈ 119 µM)

**Q.** And the MFC/MIC (Candida spp.)?
**A.** 1–2

**Q.** What about the MIC (Candida spp.) of the same molecule?
**A.** 31.2 to 62.5 µg/mL (≈ 59.4 to 119 µM)

**Q.** And the “antifungal activity in words” value (Candida spp.)?
**A.** good (good bioactivity as a MIC in the range 26 – 125 µg/mL)

**Q.** What about the MBC [1] of the same molecule?
**A.** > 1000 µg/mL

**Q.** What about the MBC/MIC [1] of the same molecule?
**A.** > 1

**Q.** And the MIC [1]?
**A.** 1000 µg/mL (≈ 1900 µM)
